US20240350659A1, “COMPOSITIONS AND METHODS FOR BIMODAL ANTI-VIRAL COMBINATION THERAPY” (priority 2021, published 2024)

Key:
SARS-COV-2 [1] = experiment: Human ACE2 transgenic COVID-19 mouse model (intranasal SARS-COV-2 infection); assay type: in vivo, mice; conditions: for Survival (%): Daily
SARS-COV-2 [2] = conditions: WHO Solidarity Trial; cited from earlier work
SARS-COV-2 [3] = assay type: in vivo; conditions: intention-to-treat population; 10 subjects per arm
SARS-COV-2 [4] = conditions: 5-day course, 476 patients, mild COVID-19; cited from earlier work
SARS-COV-2 [5] = experiment: In vitro inhibition of SARS-COV-2 replication in Vero E6 cells (viral load by quantitative real-time RT-PCR); assay type: cell-based; conditions: for effect of removal of the single agent from the formulation on overall activity (FIG. 18): APHR Combination 1 minus one agent
[6] = 200 mg/kg, Pretreatment to Day 7

CCC(CC)COC(=O)[C@H](C)N[P@](=O)(OC[C@H]1O[C@@](C#N)(c2ccc3c(N)ncnn23)[C@H](O)[C@@H]1O)Oc1ccccc1 [Remdesivir]
Survival (%) (SARS-COV-2 [1]; 50 mg/kg, Day 1 post-treatment to 7): 100%
Survival (%) (SARS-COV-2 [1]; [6]): 100%

CCN(CCO)CCCC(C)Nc1ccnc2cc(Cl)ccc12 (stereo not shown) [hydroxychloroquine]
effect on hospitalized patients with Covid-19 (SARS-COV-2 [2]): little or no effect

O=c1c(O)c(-c2ccc(O)c(O)c2)oc2cc(O)cc(O)c12 [Quercitin]
Survival (%) (SARS-COV-2 [1]; 66 mg/kg, Pretreatment to Day 7): 80%
Survival (%) (SARS-COV-2 [1]; [6]): 100%

ivermectin
morbidity, body weight (FIG. 8) (SARS-COV-2 [1]; β-cyclodextrin Rutin daily from Day 2 post infection, Ivermectin once on Day 2 post infection): decreased morbidity
Time to defervescence (days) (SARS-COV-2 [3]): 4 (3 to 6) days
Time to resolution of COVID symptoms (days) (SARS-COV-2 [3]): 4 (3 to 6) days
duration of symptoms compared with placebo (SARS-COV-2 [4]): not significantly different

C[C@@H]1O[C@@H](OC[C@H]2O[C@@H](Oc3c(-c4ccc(O)c(O)c4)oc4cc(O)cc(O)c4c3=O)[C@H](O)[C@@H](O)[C@@H]2O)[C@H](O)[C@H](O)[C@H]1O [rutin]
inhibition at 1 µM (SARS-COV-2 [5]; Severe acute respiratory syndrome coronavirus 2, Vero C1008, 1 μM final concentration, 1:1 molar ratio of cyclodextrin to rutin, read-out: inhibition of SARS-COV-2 replication over untreated (FIG. 16)): ~25%

CC(C)=CCC[C@](C)(O)C1CC=C(C)CC1 (stereo partly shown) [bisabolol]
effect of removal of the single agent from the formulation on overall activity (FIG. 18) (SARS-COV-2 [5]): reduced overall activity

O=C(OC[C@H]1O[C@@H](OC(=O)c2cc(O)c(O)c(OC(=O)c3cc(O)c(O)c(O)c3)c2)[C@H](OC(=O)c2cc(O)c(O)c(OC(=O)c3cc(O)c(O)c(O)c3)c2)[C@@H](OC(=O)c2cc(O)c(O)c(OC(=O)c3cc(O)c(O)c(O)c3)c2)[C@@H]1OC(=O)c1cc(O)c(O)c(OC(=O)c2cc(O)c(O)c(O)c2)c1)c1cc(O)c(O)c(OC(=O)c2cc(O)c(O)c(O)c2)c1 [tannic acid]
effect of removal of the single agent from the formulation on overall activity (FIG. 18) (SARS-COV-2 [5]): reduced overall activity

Cc1cccc(C)c1OCC(=O)N[C@@H](Cc1ccccc1)[C@@H](O)C[C@H](Cc1ccccc1)NC(=O)[C@H](C(C)C)N1CCCNC1=O [lopinavir]
effect on hospitalized patients with Covid-19 (SARS-COV-2 [2]): little or no effect
